{"source": "patent US8802597B2", "about": "“Herbicidal pyrimidines” (E I du Pont de Nemours and Company, priority 2003, dated 2014)", "assay_type_in_all_cases": "in vivo", "key": {"[1]": {"system": "ducksalad (HETLI; Heteranthera limosa)", "assay": "Test J mixtures of compound 58 with azimsulfuron, flooded paddy", "conditions": "21 days, scale 0-100", "source_text": "(§1) This test evaluated the effect of mixtures of compound 58 with azimsulfuron on several plant species. Three plastic pots (ca. 16-cm diameter) per rate were partially filled with sterilized Tama silt loam soil comprising a 35:50:15 ratio of sand, silt and clay and 2.6% organic matter. Separate plantings for each of the three pots were as follows. Seeds from the U.S. of ducksalad (HETLI; Heteranthera limosa), smallflower umbrella sedge (CYPDI; Cyperus difformis) and purple redstem (AMMCO; Ammannia coccinea), were planted into one 16-cm pot for each rate. Seeds from the U.S. of bearded sprangletop (LEFUF; Leptochloa fusca ssp. fascicularis), one stand of 9 or 10 water-seeded rice seedlings (ORYSW; Oryza sativa cv. ‘Japonica-M202’), and one stand of 6 transplanted rice seedlings (ORYSP; Oryza sativa cv. ‘Japonica-M202’) were planted into one 16-cm pot for each rate. Seeds from the U.S. of barnyardgrass (ECHCG; Echinochloa crus-galli), late watergrass (ECOR2; Echinochloa oryzicola), early watergrass (ECHOR; Echinochloa oryzoides) and junglerice (ECHCO; Echinochloa colona) were planted into one 16-cm pot for each rate. Plantings were sequential so that crop and weed species were at the 2.0 to 2.5-leaf stage at time of treatment.\n(§2) Potted plants were grown in a greenhouse with day/night temperature settings of 29.5/26.7° C., and supplemental balanced lighting was provided to maintain a 16-hour photoperiod. Test pots were maintained in the greenhouse until test completion.\n(§3) At time of treatment, test pots were flooded to 3 cm above the soil surface and then treated by application directly to the paddy water of test compounds formulated in a non-phytotoxic solvent mixture which included a surfactant. The pots were maintained at the 3-cm water depth for the duration of the test. Treatments consisted of compound 58 and azimsulfuron alone and in combination. Effects of treatments on rice and weeds were visually evaluated by comparison to untreated controls after 21 days. Plant response ratings were calculated as the means of the three replicates and are summarized in Table J. The ratings are based on a scale of 0 to 100 where 0 is no effect and 100 is complete control. A dash (-) response means no test result. Colby's Equation was used to determine the herbicidal effects expected from the mixtures."}, "[2]": {"system": "bearded sprangletop (LEFUF; Leptochloa fusca ssp. fascicularis)", "assay": "Test J mixtures of compound 58 with azimsulfuron, flooded paddy", "conditions": "21 days, scale 0-100", "source_text": "as §1, §2, §3"}, "[3]": {"system": "smallflower umbrella sedge (CYPDI; Cyperus difformis)", "assay": "Test J mixtures of compound 58 with azimsulfuron, flooded paddy", "conditions": "21 days, scale 0-100", "source_text": "as §1, §2, §3"}, "[4]": {"system": "transplanted rice seedlings (ORYSP; Oryza sativa cv. ‘Japonica-M202’)", "assay": "Test J mixtures of compound 58 with azimsulfuron, flooded paddy", "conditions": "21 days, scale 0-100", "source_text": "as §1, §2, §3"}, "[5]": {"system": "barnyardgrass (ECHCG; Echinochloa crus-galli)", "assay": "Test J mixtures of compound 58 with azimsulfuron, flooded paddy", "conditions": "21 days, scale 0-100", "source_text": "as §1, §2, §3"}, "[6]": {"system": "purple redstem (AMMCO; Ammannia coccinea)", "assay": "Test J mixtures of compound 58 with azimsulfuron, flooded paddy", "conditions": "21 days, scale 0-100", "source_text": "as §1, §2, §3"}, "[7]": {"system": "late watergrass (ECOR2; Echinochloa oryzicola)", "assay": "Test J mixtures of compound 58 with azimsulfuron, flooded paddy", "conditions": "21 days, scale 0-100", "source_text": "as §1, §2, §3"}, "[8]": {"system": "junglerice (ECHCO; Echinochloa colona)", "assay": "Test J mixtures of compound 58 with azimsulfuron, flooded paddy", "conditions": "21 days, scale 0-100", "source_text": "as §1, §2, §3"}, "[9]": {"system": "common chickweed (STEME; Stellaria media)", "assay": "Test I mixtures of compound 9 with metsulfuron-methyl and chlorsulfuron-metsulfuron-methyl (5:1)", "conditions": "applied alone", "source_text": "This test evaluated the effect of mixtures of compound 9 with metsulfuron-methyl and with a 5:1 by weight combination of chlorsulfuron and metsulfuron-methyl on several plant species. Seeds of test plants consisting of wheat (TRZAW; Triticum aestivum), wild buckwheat, (POLCO; Polygonum convolvulus), redroot pigweed (AMARE; Amaranthus retroflexus), wild mustard (SINAR; Sinapis arvensis), catchweed bedstraw (GALAP; Galium aparine), Russian thistle (SASKR; Salsola kali), common chickweed (STEME; Stellaria media), kochia (KCHSC; Kochia scoparia), and lambsquarters (CHEAL; Chenopodium album) were planted into a blend of loam soil and sand. Plants were grown in a greenhouse using supplemental lighting to maintain a photoperiod of about 14 hours; daytime and nighttime temperatures were about 23° C. and 16° C., respectively. Balanced fertilizer was applied through the watering system. The plants were grown for 10 to 23 days so that at time of treatment the plants ranged from 2- to 8-leaf stage. Treatments consisted of Compound 9, metsulfuron-methyl, and chlorsulfuron-metsulfuron-methyl (5:1) alone and in combination. The treatments were formulated in a non-phytotoxic solvent mixture which included a surfactant and applied as a foliage spray using a volume of 280-458 L/ha. Each treatment was replicated three times. […] Treated plants and controls were maintained in the greenhouse and watered as needed with care to not wet the foliage for the first 24 hours after treatment. The effects on the plants approximately 17 days after treatment were visually compared to untreated controls. Plant response ratings were calculated as the means of the three replicates, based on a scale of 0 to 100 where 0 is no effect and 100 is complete control. Colby's Equation was used to determine the herbicidal effects expected from the mixtures."}, "[10]": {"system": "Canada thistle (Cirsium arvense)", "assay": "Test L field study, Compound 1 and nicosulfuron", "conditions": "Compound 1 125 g a.i./ha, approximately 56 days after treatment", "source_text": "(§4) This field study included treatments that consisted of Compound 1 and nicosulfuron alone and in combination on Canada thistle (Cirsium arvense) and daisy fleabane (Erigeron spp.). The plants ranged from 20 to 30 cm in height at the time of application during the month of May in the vicinity of Newark, Del. Compound 1 was formulated as a wettable powder containing 25% active ingredient by weight. Nicosulfuron was in the form of Accent® Herbicide, a water-dispersible granule formulation containing 75% active ingredient by weight. The formulations were dispersed in water in the sprayer tank before treatment. The treatments were made using a backpack sprayer calibrated to deliver 24 gallons per acre (224 L per hectare) to a 10 ft×30 ft (3 m×9 m) plot. Each treatment was replicated two times. The effects on the plants approximately 56 days after treatment were visually compared to untreated controls. Plant response ratings were calculated as the means of the two replicates, based on a scale of 0 to 100 where 0 is no effect and 100 is complete control. Colby's Equation was used to determine the herbicidal effects expected from the mixture."}, "[11]": {"system": "daisy fleabane (Erigeron spp.)", "assay": "Test L field study, Compound 1 and nicosulfuron", "conditions": "Compound 1 125 g a.i./ha, approximately 56 days after treatment", "source_text": "as §4"}}, "data": [{"smiles": "COC(=O)c1nc(-c2ccc(Cl)cc2)nc(N)c1Cl", "note": "[Compound 58, methyl 6-amino-5-chloro-2-(4-chlorophenyl)-4-pyrimidinecarboxylate]", "values": [{"measurement": "HETLI Obsd.", "setting": "[1]; Cmpd 58 16 g a.i./ha alone", "result": 100}, {"measurement": "HETLI Obsd.", "setting": "[1]; Cmpd 58 32 g a.i./ha alone", "result": 100}, {"measurement": "HETLI Obsd.", "setting": "[1]; Cmpd 58 64 g a.i./ha alone", "result": 100}, {"measurement": "LEFUF Obsd.", "setting": "[2]; Compound 58 16 g a.i./ha alone", "result": 0}, {"measurement": "LEFUF Obsd.", "setting": "[2]; Compound 58 32 g a.i./ha alone", "result": 0}, {"measurement": "LEFUF Obsd.", "setting": "[2]; Compound 58 64 g a.i./ha alone", "result": 20}, {"measurement": "CYPDI Obsd.", "setting": "[3]; Cmpd 58 16 g a.i./ha alone", "result": 100}, {"measurement": "CYPDI Obsd.", "setting": "[3]; Cmpd 58 32 g a.i./ha alone", "result": 100}, {"measurement": "CYPDI Obsd.", "setting": "[3]; Cmpd 58 64 g a.i./ha alone", "result": 100}, {"measurement": "ORYSP Obsd.", "setting": "[4]; Cmpd 58 16 g a.i./ha alone", "result": 0}, {"measurement": "ORYSP Obsd.", "setting": "[4]; Cmpd 58 32 g a.i./ha alone", "result": 0}, {"measurement": "ORYSP Obsd.", "setting": "[4]; Cmpd 58 64 g a.i./ha alone", "result": 0}, {"measurement": "ECHCG Obsd.", "setting": "[5]; Compound 58 16 g a.i./ha alone", "result": 0}, {"measurement": "ECHCG Obsd.", "setting": "[5]; Compound 58 32 g a.i./ha alone", "result": 0}, {"measurement": "ECHCG Obsd.", "setting": "[5]; Compound 58 64 g a.i./ha alone", "result": 0}, {"measurement": "AMMCO Obsd.", "setting": "[6]; Cmpd 58 16 g a.i./ha alone", "result": 0}, {"measurement": "AMMCO Obsd.", "setting": "[6]; Cmpd 58 32 g a.i./ha alone", "result": 30}, {"measurement": "AMMCO Obsd.", "setting": "[6]; Cmpd 58 64 g a.i./ha alone", "result": 90}, {"measurement": "ECOR2 Obsd.", "setting": "[7]; Compound 58 16 g a.i./ha alone", "result": 0}, {"measurement": "ECOR2 Obsd.", "setting": "[7]; Compound 58 32 g a.i./ha alone", "result": 0}, {"measurement": "ECOR2 Obsd.", "setting": "[7]; Compound 58 64 g a.i./ha alone", "result": 0}, {"measurement": "ECHCO Obsd.", "setting": "[8]; Compound 58 16 g a.i./ha alone", "result": 0}, {"measurement": "ECHCO Obsd.", "setting": "[8]; Compound 58 32 g a.i./ha alone", "result": 0}, {"measurement": "ECHCO Obsd.", "setting": "[8]; Compound 58 64 g a.i./ha alone", "result": 0}]}, {"smiles": "COC(=O)c1nc(C2CC2)nc(N)c1Cl", "note": "[Compound 9, methyl 6-amino-5-chloro-2-cyclopropyl-4-pyrimidinecarboxylate]", "values": [{"measurement": "STEME Obsd. (observed effect)", "setting": "[9]; 4 g a.i./ha", "result": 47}, {"measurement": "STEME Obsd. (observed effect)", "setting": "[9]; 8 g a.i./ha", "result": 55}]}, {"smiles": "CCOC(=O)c1nc(C2CC2)nc(N)c1Br", "note": "[Compound 1, ethyl 6-amino-5-bromo-2-cyclopropyl-4-pyrimidinecarboxylate]", "values": [{"measurement": "Obsd. observed effect (0 to 100 scale)", "setting": "[10]", "result": 73}, {"measurement": "Obsd. observed effect (0 to 100 scale)", "setting": "[11]", "result": 53}]}]}
